Test results reported in US20060252786A1, “Nicotinic-opioid synergy for analgesia” (priority 2004, published 2006).
Values joined by “and” are separate entries in the source; they are usually repeats but may differ in a detail not shown here. Equal values may be shown once. Read-outs that look alike come from different tables or passages of the source.

Tests used:
[1] = system: α4β2 type nicotinic receptors; conditions: binds more tightly; cited from earlier work
[2] = system: tail flick antinociception; conditions: cited from earlier work
[3] = system: post-incisional pain, injured hind paw; conditions: for Meas (von Frey response): IP, individual measurements
[4] = system: tolerance to morphine
[5] = system: postoperative pain
Description: (§1) This study was a randomized, double blind clinical trial with a 24 hour data collection period. The study was approved by the institutional review board at Columbia University. Written informed consent was obtained from all patients. Women between the ages of 18 and 50, scheduled to have uterine surgery (either myomectomy or hysterectomy) through a low transverse incision were eligible to be included. We chose to only study women in this preliminary study because animal studies have identified gender differences in nicotine's analgesic action 10-12. Patients were excluded who had smoked during the past year, had preexisting pain syndromes, hypertension, or any history of cardiovascular disease. All patients were American Society of Anesthesiologists class 1 or 2. The patients were instructed before surgery that they would be asked about their pain with a numerical analog score where 0 is no pain and 10 is the worst pain that they could imagine. […] No other medications were given in the preoperative period.
(§2) All patients were given a standardized anesthetic as follows: anesthetic premedication was administered in the operating room consisting of 1-2 μg/kg fentanyl and 1 mg vecuronium. Anesthesia was induced with propofol 2 mg/kg and succinylcholine 2 mg/kg. After intubation of the trachea, anesthesia was maintained with a fentanyl infusion of 1-2 μg/kg/hr and isoflurane titrated to adequate anesthetic depth by the clinical anesthesiologist, who was not aware of the treatment group. Muscle relaxation was effected with vecuronium. All patients were given dolasetron 12.5 mg prophylactically to prevent nausea and vomiting. At the completion of surgery, the anesthesiologist was given an opaque sealed container with either a nicotine nasal spray (3 mg—Nicotrol NS, Pharmacia, Peapack, N.J.) or saline nasal spray prepared according to a random number table by the research pharmacy. The study drug was administered by the anesthesiologist as 3 jets in each nostril (3 mg nicotine or an equal volume of saline) at a 45 degree angle after the muscle relaxant was reversed and while the surgeon was closing the fascia.
Five minutes after extubation and every 5 minutes thereafter for 60 minutes, the patient was asked to report the pain that they were experiencing with a numerical analog score from 0-10. A pain report was also obtained at 2 and 24 hours. A PCA pump was inserted into the patient's intravenous circuit prior to emergence from anesthesia. […] No other postoperative analgesic medications were used.
The data were analyzed per protocol. Two subjects from whom informed consent was obtained were not studied for postoperative pain. In one case because of a protocol violation in the standard anesthetic the patient was not randomized and in the second case, the anesthesiologist was not certain of study drug dose. The decision to exclude these patients was made prior to the postoperative period and this no data was obtained.
(§3) In previous studies using analog pain scores the standard deviation was approximately 2 numerical analog pain units. We calculated that in order to detect a difference of 2 numerical analog pain units, with α=0.05 and 80% power we would need to enroll 17 patients per group (StatMate, GraphPad software, San Diego, Calif., USA). 10 patients were enrolled per group as a pilot study requested by our IRB. […] The change in pain scores over time was determined with a One Way Analysis of Variance for repeated measures, where time was considered a continuous variable (Analyse-it for Microsoft Excel; Analyse-it Software, ltd., Leeds, England). All values are reported as mean (SD).

[6] = Description: as §1
as §2, with “fascia. […]” for “fascia.”
In previous studies using analog pain scores the standard deviation was approximately 2 numerical analog pain units. We calculated that in order to detect a difference of 2 numerical analog pain units, with α=0.05 and 80% power we would need to enroll 17 patients per group (StatMate, GraphPad software, San Diego, Calif., USA). […] The change in pain scores over time was determined with a One Way Analysis of Variance for repeated measures, where time was considered a continuous variable (Analyse-it for Microsoft Excel; Analyse-it Software, ltd., Leeds, England). […]

[7] = remark: listed apart in the source
Description: as §2
Blood pressure was measured with a non-invasive automatic oscillometric blood pressure cuff every 5 minutes for the first hour (Agilent Technologies, Andover, Mass.). Heart rate was monitored continuously with a pulse oximeter and electrocardiographic leads and recorded every five minutes for the first hour (Agilent Technologies, Andover, Mass.). All testing was conducted by the same investigator (D.D.). Both the investigator recording data and the nurse administering medication were blinded to treatment group.
as §3

[8] = system: post-incisional pain
Description: Each of these studies will be nearly identical to the original study (FIG. 5). However, the studies will look at the following dosing paradigms: • 1. Animals will be randomized to receive nicotine 0.25 to 1.5 mg/kg, or placebo 2 hours prior to the hind-paw surgery, or 2 hours after the hind paw surgery (reproducing the original study). […] The doses will be determined in a dose-finding portion of the interaction study. The interaction surface will be modeled and tested to identify any benefit from preoperative administration of nicotine. • 2. […] The study will help to document whether there is any benefit to maintaining nicotine with a constant infusion vs. a simple bolus injection. Expected Results and Potential Issues

[9] = nicotine nasal spray 3 mg, PCA morphine
[10] = system: TNF-α, IL2 and IL6; conditions: anticipated; nicotine 0-5 mg/kg after surgical incision
[11] = 3 mg intranasally, non-smoking volunteers; cited from earlier work
[12] = cited from earlier work
[13] = system: antinociceptive action of nicotine; conditions: in vivo; cited from earlier work
[14] = 3 mg intranasally (Guthrie, 1999)

CNCC/C=C/c1cccnc1 [metanicotine]
binding selectivity for α4β2 over α3β4, α7 or muscle type nicotinic receptors [1]: over 10,000 times | antinociception in the tail flick assay ([2]; dose of 10 mg/kg): midrange antinociception

CN1CC[C@]23c4c5ccc(O)c4O[C@H]2[C@@H](O)C=C[C@H]3[C@H]1C5 [morphine]
antinociceptive efficacy alone ([3]; 129J strain relatively insensitive to morphine): relatively ineffective alone | Meas (von Frey response) ([3]; Morphine 0.1 mg/kg, Nicotine 0): 1.8 gms (2×) and 0.75 gms (2×) and 2.95 gms | Meas (von Frey response) ([3]; Morphine 1 mg/kg, Nicotine 0): 1.95 gms (3×) and 1.7 gms and 0.9 gms and 5.2 gms (2×) and 5.95 gms and 0.75 gms and 2.95 gms | Meas (von Frey response) ([3]; Morphine 5 mg/kg, Nicotine 0): 0.9 gms (3×) and 1.1 gms (2×) and 7.9 gms (3×) and 7.65 gms (2×) | Meas (von Frey response) ([3]; Morphine 10 mg/kg, Nicotine 0): 1.1 gms (3×) and 0.45 gms and 2.15 gms | Meas (von Frey response) ([3]; Morphine 13 mg/kg, Nicotine 0): 4.65 gms (2×) and 7.65 gms (3×) | Meas (von Frey response) ([3]; Morphine 20 mg/kg, Nicotine 0): 7.9 gms and 4.9 gms (3×) and 8.1 gms | reduction in peak effect (plateau of analgesic action) ([4]; morphine 2 mg/kg/hr subcutaneous pump, nicotine 1 mg/kg IP or saline, heat withdrawal latency, 18 hour period): 64±14%

CCN1C[C@]2(COC(=O)c3ccccc3N3C(=O)C[C@H](C)C3=O)CC[C@H](OC)[C@@]34[C@@H]5C[C@H]6[C@H](OC)[C@@H]5[C@](O)(C[C@@H]6OC)[C@](O)([C@@H](OC)[C@H]23)[C@@H]14 [MLA]
effect on the antinociceptive response to nicotine ([2]; tail flick assay): no effect

CN1CCCC1c1cccnc1 (stereo not drawn) [nicotine]
peak pain scores (VAS, out of 10) ([5]; 20 non-smoking women after gynecological surgery, reduced from 8 (placebo)): 5 | time at which peak pain score occurred ([5]; after surgery, nicotine nasal spray 3 mg, PCA morphine): 35 min | peak pain score (numerical analog score 0-10) ([5]; nicotine nasal spray 3 mg at end of surgery, PCA morphine available, first hour, mean (SD)): 5.3 (1.6) units | pain score twenty-four hours after emergence ([5]; nicotine nasal spray 3 mg single dose, PCA morphine, mean (SD), P<0.01 vs placebo): 1.5 (0.5) | pain scores during the first hour compared with placebo ([5]; nicotine nasal spray just prior to emergence, P<0.001): lower pain scores at all times during the first hour | average VAS score in the first hour ([5]; preliminary data set, placebo 6.5): approximately 4.5 | duration of analgesic effect ([5]; single 3 mg intranasal dose, last assessment in the study): at least 24 hours | morphine used during the first 24 hours after surgery ([6]; nicotine nasal spray 3 mg, difference vs placebo not statistically significant): 41 ± 9 mg | cumulative morphine utilization during the first hour ([6]; nicotine nasal spray 3 mg, mean (SD), P<0.05 vs control): 6 (5) mg | overall morphine usage compared to the placebo group ([6]; nicotine nasal spray 3 mg, p<0.01): about half | reduction in morphine requirement in the first hour ([6]; nicotine vs placebo): 50% | systolic blood pressure compared with placebo ([7]; first hour after surgery): lower systolic blood pressure | diastolic blood pressure compared with placebo ([7]; first postoperative hour): no difference | heart rate compared with placebo ([7]; first postoperative hour): no difference | systolic blood pressure ([7]; first postoperative hour, mean (SD), placebo 122 (3), P<0.001): 105 (3) | hemodynamic consequences of a single dose of nicotine ([7]; pilot study): No hemodynamic consequences have been identified | benefit from pre-operative administration (expected) ([8]; 2 hours prior to hind-paw surgery): no benefit | analgesic response with constant infusion (expected) ([8]; micro-osmotic pump vs bolus injection): more stable level of analgesic response | incidence of nausea and vomiting compared with placebo [9]: did not differ | Meas (von Frey response) ([3]; Morphine 0, Nicotine 0.5 (mg)): 0 gms (4×) and 0.25 gms | Meas (von Frey response) ([3]; Morphine 0, Nicotine 1 (mg)): 1.95 gms (2×) and 2.7 gms (3×) | Meas (von Frey response) ([3]; Morphine 0, Nicotine 1.5 (mg)): 2.7 gms (2×) and 4.9 gms (2×) and 4.65 gms | Meas (von Frey response) ([3]; Morphine 0, Nicotine 2 (mg)): 2.7 gms (3×) and 4.9 gms (2×) | Meas (von Frey response) ([3]; Morphine 0, Nicotine 3 (mg), upper threshold 15): 15 gms | Meas (von Frey response) ([3]; Morphine 0, Nicotine 5 (mg), upper threshold 15): 15 gms | ED20 for primary hyperalgesia ([3]; single IP injection): 1.5 mg/kg | peak withdrawal latency compared with saline group ([4]; morphine infusion 2 mg/kg/hr, data not shown): higher | tolerance to morphine after pretreatment with a single dose of nicotine ([4]; nicotine 1.5 mg/kg, morphine continuous infusion 18 hours, P<0.001): Tolerance is reduced | levels of TNF-α, IL2 and IL6 compared with placebo group (expected) [10]: lower levels | average increase in systolic blood pressure [11]: 7 mM of mercury | change in diastolic blood pressure [11]: no change | change in heart rate [11]: no change | arterial peak concentration [12, 14]: 100 µM | steady state venous concentration [12, 14]: 30 µM | time to peak effect ([12]; intranasal): five | time until effect is dissipated ([12]; intranasal): about one

C[N+](C)(C)CCCCCC[N+](C)(C)C [hexamethonium]
effect on the antinociceptive action of nicotine [13]: no effect
